Where “and” joins values, the source holds several entries; their conditions need not be identical. Equal values may be shown once. Read-outs that look alike come from different tables or passages of the source.
Tests used:
Assay type in all cases: cell-based
CEM non infectées = assay: Toxicity on uninfected CEM cells, colorimetric formazan (MTT) reduction; settings: lowest concentration inhibiting formazan formation by at least 50%, four days of incubation, macrophage CEM-SS
Procedure: On détermine aussi la toxicité des composés testés. L'effet toxique sur les CEM non infectées est apprécié par une réaction colorimétrique basée sur la capacité des cellules vivantes à réduire le bromure de 3-(4,5-diméthylthiazol-2-yl)-2,5-diphényltétrazolium en formazan après quatre jours d'incubation en présence de différentes concentrations des composés. Les résultats sont exprimés par la concentration la plus faible de composés qui provoque une inhibition d'au moins 50% de la formation de formazan. Cette concentration est appelée CI50.

Aspergillus fumigatus = assay: Anti-Aspergillus fumigatus in vitro growth inhibition (glucose consumption); settings: for IC50: Aspergillus fumigatus
Text: Différents composés B1 ont été testés du point de vue de leurs propriétés anti-Aspergillus fumigatus, dans un essai in vitro standardisé, complètement décrit dans la publication (7) dont le contenu est incorporé, par référence, à la présente description.
Dans cet essai, la croissance dudit champignon est indiquée par la consommation de glucose qui constitue la seule source de carbone métabolisable, et on mesure la concentration en composé testé nécessaire pour inhiber 50% (IC50), et 90% (IC90) de la croissance du champignon. Deux composés témoin sont utilisés, l'Itraconazole et l'Amphotéricine B, dont les propriétés anti-Aspergillus fumigatus sont connues et qui servent dans cet essai de référence.

VIH (souche BRU) = assay: Anti-HIV in vitro test: syncytia formation in HIV-infected CEM cells; settings: 96 h
Text: Les composés A (A1, A2) et B (B1, B2) sont testés du point de vue de leurs propriétés anti-VIH selon un protocole d'essai in vitro standardisé et complètement décrit dans les publications (5, 6), dont le contenu est incorporé par référence, à la présente description.
La multiplication du VIH (souche BRU) dans les cellules CEM est évaluée par le nombre de syncytia formés après 4 jours d'infection, résultant de l'interaction entre la glycoprotéine gp120 exprimée par les cellules (BRU) infectées par le VIH, et les lymphocytes T4 (CEM).
Les composés testés sont ajoutés après l'adsorption du virus dans le milieu de culture aux concentrations finales 10^-3M, 10^-4M, 10^-5M, 10^-6M et 10^-7M.
Les résultats sont exprimés par la concentration la plus faible de composés qui diminue la formation des syncytia d'au moins 50%. Cette concentration est appelée EC50. Elle doit être la plus basse possible.

[1] = anti-VIH sur macrophage CEM-SS, lowest concentration reducing syncytia formation by at least 50%, 4 days of infection, read-out: EC50

| Structure (SMILES) | CI50 (CEM non infectées) [µM] | IC50 (Aspergillus fumigatus; read-out: CI50) | EC50 (VIH (souche BRU); CEM-SS) [µM] | EC50 (VIH (souche BRU); [1]) [µM] | IC50 (Aspergillus fumigatus; concentration inhibiting 50% of fungal growth, read-out: CI50 (the source's name)) | activité anti-Aspergillus fumigatus (Aspergillus fumigatus; result in words, compared with the reference compound) |
| --- | --- | --- | --- | --- | --- | --- |
| CCCCCCCCCCCCNC[C@H](O)[C@@H](O)[C@H](O[C@@H]1O[C@H](CO)[C@H](O)[C@H](O)[C@H]1O)[C@H](O)CO [N-dodécylaminodésoxyl-1-lactitol] | 7000 | > 100 µg/mL and 195 µM | 1000 | – | – | – |
| CCCCCCCCCCCCCCCC(=O)N(CCCCCCCCC)C[C@H](O)[C@@H](O)[C@H](O[C@@H]1O[C@H](CO)[C@H](O)[C@H](O)[C@H]1O)[C@H](O)CO [B1(9, 15)] | > 100 | 1.6 µg/mL and 2.3 µM | – | 10 | – | – |
| CCCCCCCCCNC[C@H](O)[C@@H](O)[C@H](O[C@@H]1O[C@H](CO)[C@H](O)[C@H](O)[C@H]1O)[C@H](O)CO [N-nonylaminodésoxy-1-lactitol] | 40 | > 100 µg/mL and > 220 µM | – | 1 | – | – |
| C[C@@H]1[C@H](O)[C@@H](C)/C=C/C=C/C=C/C=C/C=C/C=C/C=C/[C@H](O[C@@H]2O[C@H](C)[C@@H](O)[C@H](N)[C@@H]2O)C[C@@H]2O[C@](O)(C[C@@H](O)C[C@@H](O)[C@H](O)CC[C@@H](O)C[C@@H](O)CC(=O)O[C@H]1C)C[C@H](O)[C@H]2C(=O)O [Amphotéricine B, reference compound] | – | 0.02 µg/mL and 20 nM | – | – | – | – |
| CCCCCCCCCCCCCCCCNC[C@H](O)[C@@H](O)[C@H](O[C@@H]1O[C@H](CO)[C@H](O)[C@H](O)[C@H]1O)[C@H](O)CO [N-hexadécylaminodésoxy-l-lactitol] | 70 | 2.2 µg/mL and 3.8 µM | 50 | – | – | – |
| CCCCCCCCCCCCCC(=O)N(CCCCCCCCC)C[C@H](O)[C@@H](O)[C@H](O[C@@H]1O[C@H](CO)[C@H](O)[C@H](O)[C@H]1O)[C@H](O)CO [B1(9, 13)] | – | 5 µg/mL and 7.4 µM | – | – | – | – |
| CCCCCCCCCCCCCCNC[C@H](O)[C@@H](O)[C@H](O[C@@H]1O[C@H](CO)[C@H](O)[C@H](O)[C@H]1O)[C@H](O)CO [N-tétradécylaminodésoxy-l-lactitol] | 70 | 15.2 µg/mL and 28.1 µM | 50 | – | – | – |
| CCC(C)n1ncn(-c2ccc(N3CCN(c4ccc(OCC5COC(Cn6cncn6)(c6ccc(Cl)cc6Cl)O5)cc4)CC3)cc2)c1=O (centres unmarked) [Itraconazole, reference compound] | – | – | – | – | 0.003 µg/mL and 4 nM | – |
| CCCCCCCCCCCCCCCCCC(=O)N(CCCCCCCCC)C[C@H](O)[C@@H](O)[C@H](O[C@@H]1O[C@H](CO)[C@H](O)[C@H](O)[C@H]1O)[C@H](O)CO [B1(9, 17)] | – | 0.5 µg/mL and 600 nM | – | – | – | proche de celle de l'Amphotéricine B |

From patent EP0723972A1, “Lactylamines and their pharmaceutical application” (STEPAN EUROPE, priority 1995, dated 1996)
